In US11826351B2, “Compounds useful as kinase inhibitors” (Loxo Oncology, Inc., priority 2015, dated 2023):

Columns and labels:
[1] = biological target: T1, Recombinant BTK^WT kinase (Homo sapiens, UniProt Q06187); assay: BTK WT binding affinity (LanthaScreen TR-FRET); conditions: Kinase Tracer 236, 5 h incubation
T1 construct: purchased Invitrogen
In short: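 Tracer-displacement TR-FRET: 2.5 nM recombinant BTK^WT, 2 nM Eu anti-His antibody and 15 nM Kinase Tracer 236 incubated with varying inhibitor concentrations for 5 h in Kinase Buffer A. Signal read at 340 nm excitation, 615/665 nm emission; IC50 from variable-slope log[inhibitor]–response fit.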

[2] = biological target: T2, Recombinant BTK^C481S kinase (Homo sapiens, UniProt Q06187, C481S); assay: BTK C481S binding affinity (LanthaScreen TR-FRET); conditions: Kinase Tracer 236, 5 h incubation
T2 construct: purchased SignalChem
In short: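 BTK C481S tracer-displacement TR-FRET: 5 nM His-tagged kinase, 2 nM Eu anti-His antibody and 30 nM Kinase Tracer 236 incubated with titrated inhibitor for 5 h in Kinase Buffer A. Read at 340 nm excitation, 615/665 nm emission; IC50 from variable-slope log[inhibitor]–response fit.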

[3] = biological target: T3, Recombinant EGFR (Homo sapiens, UniProt P00533); assay: EGFR binding affinity (LanthaScreen TR-FRET); conditions: Kinase Tracer 199, 5 h incubation
T3 construct: purchased Invitrogen
In short: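 TR-FRET binding (LanthaScreen) with recombinant EGFR; signal measured across a compound concentration range. IC50 obtained by fitting RFU against log[inhibitor] to a variable-slope model.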

[4] = test system: OCI-Ly10 human DLBCL cells; assay: OCI-Ly10 anti-proliferative activity (Resazurin); assay type: cell-based; conditions: Homo sapiens, OCI-Ly10, 72 h, OCI-Ly10 cells, 72 h compound treatment, Resazurin; read-out: Proliferation Assay OCI-Ly10-20% FBS
In short: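 OCI-Ly10 human DLBCL cells, whose growth depends on NFκB signalling, were seeded at 7.5×10^3 cells per well in 96-well plates with a range of compound concentrations and kept at 37° C for 72 h. Resazurin was then added, and after 5 h fluorescence was read at 590 nm.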

T1 sequence (Q06187 whole entry): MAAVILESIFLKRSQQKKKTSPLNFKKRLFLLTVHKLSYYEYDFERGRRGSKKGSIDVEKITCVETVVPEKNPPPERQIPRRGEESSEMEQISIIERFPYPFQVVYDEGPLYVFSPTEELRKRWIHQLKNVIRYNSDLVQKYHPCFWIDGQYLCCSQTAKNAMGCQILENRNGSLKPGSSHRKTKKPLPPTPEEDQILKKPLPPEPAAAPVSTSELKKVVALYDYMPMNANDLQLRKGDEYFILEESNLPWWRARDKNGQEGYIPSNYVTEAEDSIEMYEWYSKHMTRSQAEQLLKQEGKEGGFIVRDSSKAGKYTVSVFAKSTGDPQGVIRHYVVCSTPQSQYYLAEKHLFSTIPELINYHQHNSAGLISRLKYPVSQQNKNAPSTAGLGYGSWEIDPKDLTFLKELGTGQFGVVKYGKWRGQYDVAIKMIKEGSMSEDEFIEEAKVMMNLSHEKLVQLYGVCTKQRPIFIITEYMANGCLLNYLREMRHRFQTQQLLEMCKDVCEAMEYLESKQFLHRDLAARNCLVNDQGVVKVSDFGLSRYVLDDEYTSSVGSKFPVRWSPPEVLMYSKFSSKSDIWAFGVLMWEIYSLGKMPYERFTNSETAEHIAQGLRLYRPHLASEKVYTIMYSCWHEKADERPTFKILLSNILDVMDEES
T3 sequence (P00533 25-1210): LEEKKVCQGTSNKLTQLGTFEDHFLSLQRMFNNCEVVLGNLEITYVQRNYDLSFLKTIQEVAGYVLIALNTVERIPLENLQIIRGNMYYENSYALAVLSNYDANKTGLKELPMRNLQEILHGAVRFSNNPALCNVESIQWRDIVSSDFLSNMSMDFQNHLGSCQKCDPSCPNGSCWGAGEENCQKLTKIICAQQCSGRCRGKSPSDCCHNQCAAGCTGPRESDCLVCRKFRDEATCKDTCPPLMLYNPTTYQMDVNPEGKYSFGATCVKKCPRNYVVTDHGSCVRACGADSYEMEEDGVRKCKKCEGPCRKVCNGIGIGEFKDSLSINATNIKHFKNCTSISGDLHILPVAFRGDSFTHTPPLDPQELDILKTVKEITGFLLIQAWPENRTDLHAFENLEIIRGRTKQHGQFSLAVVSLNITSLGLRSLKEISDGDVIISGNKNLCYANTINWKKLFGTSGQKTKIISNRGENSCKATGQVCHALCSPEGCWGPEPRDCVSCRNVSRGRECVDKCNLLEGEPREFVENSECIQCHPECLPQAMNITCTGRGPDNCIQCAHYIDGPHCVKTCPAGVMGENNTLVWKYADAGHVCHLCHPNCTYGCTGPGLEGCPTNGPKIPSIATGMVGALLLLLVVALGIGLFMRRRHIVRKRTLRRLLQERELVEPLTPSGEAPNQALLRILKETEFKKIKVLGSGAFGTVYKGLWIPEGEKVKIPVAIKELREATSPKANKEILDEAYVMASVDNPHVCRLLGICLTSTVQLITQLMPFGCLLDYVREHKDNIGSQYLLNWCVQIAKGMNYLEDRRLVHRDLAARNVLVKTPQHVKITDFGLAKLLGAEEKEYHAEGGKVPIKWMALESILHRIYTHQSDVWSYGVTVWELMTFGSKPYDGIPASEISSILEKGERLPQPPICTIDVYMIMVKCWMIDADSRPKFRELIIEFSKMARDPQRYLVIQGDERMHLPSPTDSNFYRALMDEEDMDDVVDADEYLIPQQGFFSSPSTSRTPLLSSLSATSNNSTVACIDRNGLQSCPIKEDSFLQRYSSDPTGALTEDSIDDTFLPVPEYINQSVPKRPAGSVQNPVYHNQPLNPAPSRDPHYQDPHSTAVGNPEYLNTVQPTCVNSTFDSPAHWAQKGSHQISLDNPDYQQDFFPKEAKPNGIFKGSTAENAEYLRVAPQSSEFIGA
T2 sequence (Q06187 whole entry C481S): as the sequence (Q06187 whole entry) above, with C481S counted along it

Structure (SMILES) | IC50 [1] [nM] | IC50 [2] [nM] | IC50 [3] [nM] | IC50 [4] [nM]
COc1ccc(F)cc1C(=O)NCc1ccc(-c2nn(C3CCCOC3)c(N)c2C(N)=O)c(F)c1F (stereo not drawn) [Example 159, 5-amino-3-[2,3-difluoro-4-[[(5-fluoro-2-methoxy-benzoyl)amino]methyl]phenyl]-1-tetrahydropyran-3-yl-pyrazole-4-carboxamide] | < 10 | < 10 | > 10000 | 10 to 100
COc1ccc(F)cc1C(=O)NCc1ccc(-c2nn(C(C)C(F)F)c(N)c2C(N)=O)cc1 (stereo not drawn) [Example 173, 5-amino-1-(2,2-difluoro-1-methyl-ethyl)-3-[4-[[(5-fluoro-2-methoxy-benzoyl)amino]methyl]phenyl]pyrazole-4-carboxamide] | < 10 | < 10 | 1000 to 10000 | 10 to 100
COc1ccccc1C(=O)NCc1ccc(-c2nn(C3CCC(OCc4ccccc4)CC3)c(N)c2C(N)=O)cc1 (mixture of isomers) [Example 28, 5-Amino-1-(4-benzyloxycyclohexyl)-3-[4-[[(2-methoxybenzoyl)amino]methyl]phenyl]pyrazole-4-carboxamide] | < 10 | < 10 | 100 to 1000 | 10 to 100
COc1ccccc1C(=O)NCc1ccc(-c2nn(C3CCOC3)c(N)c2C(N)=O)cc1F (stereo not drawn) [Example 109, 5-amino-3-[3-fluoro-4-[[(2-methoxybenzoyl)amino]methyl]phenyl]-1-tetrahydrofuran-3-yl-pyrazole-4-carboxamide] | < 10 | < 10 | 1000 to 10000 | 100 to 1000
COc1ccc(F)cc1C(=O)NCc1ccc(-c2nn(C3CCOCC3)c(N)c2C(N)=O)cc1F [Example 123, 5-amino-3-[3-fluoro-4-[[(5-fluoro-2-methoxy-benzoyl)amino]methyl]phenyl]-1-tetrahydropyran-4-yl-pyrazole-4-carboxamide] | < 10 | < 10 | 1000 to 10000 | 100 to 1000
COc1ccccc1C(=O)NCc1ccc(-c2nn(C3C[C@@H]4C[C@@H]4C3)c(N)c2C(N)=O)cc1 (stereo partly drawn) [Example 4, 5-Amino-1-(3-bicyclo[3.1.0]hexanyl)-3-[4-[[(2-methoxybenzoyl)amino]methyl]phenyl]pyrazole-4-carboxamide] | < 10 | < 10 | 100 to 1000 | < 10
COc1ccccc1C(=O)NCc1ccc(-c2nn(C3CCCC3)c(N)c2C(N)=O)cc1C [Example 62, 5-amino-1-cyclopentyl-3-[4-[[(2-methoxybenzoyl)amino]methyl]-3-methyl-phenyl]pyrazole-4-carboxamide] | < 10 | < 10 | 100 to 1000 | 10 to 100
COc1ccccc1C(=O)NCc1ccc(-c2nn(C3CCCC3)c(NC(C)C)c2C(N)=O)cc1 [Example 72, 1-cyclopentyl-5-(isopropylamino)-3-[4-[[(2-methoxybenzoyl)amino]methyl]phenyl]pyrazole-4-carboxamide] | 10 to 100 | < 10 | 1000 to 10000 | 100 to 1000
COc1ccccc1C(=O)NCc1ccc(-c2nn(C3CCC(C)(O)CC3)c(N)c2C(N)=O)cc1 (single isomer, unassigned) [Example 33, 5-Amino-1-(4-hydroxy-4-methyl-cyclohexyl)-3-[4-[[(2-methoxybenzoyl)amino]methyl]phenyl]pyrazole-4-carboxamide] | < 10 | < 10 | 100 to 1000 | 10 to 100
COc1ccccc1C(=O)NCc1ccc(-c2nn(-c3cccc(F)c3)c(N)c2C(N)=O)cc1 [Example 32, 5-amino-1-(3-fluorophenyl)-3-[4-[[(2-methoxybenzoyl)amino]methyl]phenyl]pyrazole-4-carboxamide] | < 10 | < 10 | 100 to 1000 | 10 to 100
COc1ccccc1C(=O)NCc1ccc(-c2nn(-c3ccc(F)cc3)c(N)c2C(N)=O)cc1 [Example 43, 5-amino-1-(4-fluorophenyl)-3-[4-[[(2-methoxybenzoyl)amino]methyl]phenyl]pyrazole-4-carboxamide] | < 10 | < 10 | 100 to 1000 | 10 to 100
COc1ccccc1C(=O)NCc1ccc(-c2nn(CC(=O)C(C)(C)C)c(N)c2C(N)=O)cc1 [Example 10, 5-Amino-1-(3,3-dimethyl-2-oxo-butyl)-3-[4-[[(2-methoxybenzoyl)amino]methyl]phenyl]pyrazole-4-carboxamide] | 10 to 100 | 10 to 100 | 1000 to 10000 | 100 to 1000
COc1ccc(F)cc1C(=O)NCc1ccc(-c2nn(C(C)(C)C(F)(F)F)c(N)c2C(N)=O)cc1 [Example 189, 5-amino-3-[4-[[(5-fluoro-2-methoxy-benzoyl)amino]methyl]phenyl]-1-(2,2,2-trifluoro-1,1-dimethyl-ethyl)pyrazole-4-carboxamide] | < 10 | < 10 | 1000 to 10000 | 10 to 100
COc1ccccc1C(=O)NCc1ccc(-c2nn(CCC#N)c(N)c2C(N)=O)cc1 [Example 11, 5-Amino-1-(2-cyanoethyl)-3-[4-[[(2-methoxybenzoyl)amino]methyl]phenyl]pyrazole-4-carboxamide] | 10 to 100 | 10 to 100 | 1000 to 10000 | 1000 to 10000
COc1ccccc1C(=O)NCc1ccc(-c2nn(C3CCOC3)c(N)c2C(N)=O)cc1 (stereo not drawn) [Example 36, 5-Amino-3-[4-[[(2-methoxybenzoyl)amino]methyl]phenyl]-1-tetrahydrofuran-3-yl-pyrazole-4-carboxamide] | < 10 | < 10 | 1000 to 10000 | 10 to 100
COc1ccccc1C(=O)NCc1ccc(-c2nn(C3CCCC3)c(N)c2C(N)=O)cc1F [Example 93, 5-amino-1-cyclopentyl-3-[3-fluoro-4-[[(2-methoxybenzoyl)amino]methyl]phenyl]pyrazole-4-carboxamide] | < 10 | < 10 | 100 to 1000 | 10 to 100
COc1ccc(F)cc1C(=O)NCc1ccc(-c2nn(C3CN(C(C)C)CC3(F)F)c(N)c2C(N)=O)cc1 (stereo not drawn) [Example 197, 5-amino-1-(4,4-difluoro-1-isopropyl-pyrrolidin-3-yl)-3-[4-[[(5-fluoro-2-methoxy-benzoyl)amino]methyl]phenyl]pyrazole-4-carboxamide] | < 10 | < 10 | 1000 to 10000 | 10 to 100
COc1ccccc1C(=O)NCc1ccc(-c2nn(-c3cccnc3)c(N)c2C(N)=O)cc1 [Example 51, 5-amino-3-[4-[[(2-methoxybenzoyl)amino]methyl]phenyl]-1-(3-pyridyl)pyrazole-4-carboxamide] | < 10 | < 10 | 100 to 1000 | 10 to 100
CCN1CC(n2nc(-c3ccc(CNC(=O)c4cc(F)ccc4OC)cc3)c(C(N)=O)c2N)C(F)(F)C1 (stereo not drawn) [Example 198, 5-Amino-1-(1-ethyl-4,4-difluoro-pyrrolidin-3-yl)-3-[4-[[(5-fluoro-2-methoxy-benzoyl)amino]methyl]phenyl]pyrazole-4-carboxamide] | < 10 | < 10 | 1000 to 10000 | 10 to 100
CNc1c(C(N)=O)c(-c2ccc(CNC(=O)c3ccccc3OC)cc2)nn1-c1cccnc1 [Example 110, 3-[4-[[(2-methoxybenzoyl)amino]methyl]phenyl]-5-(methylamino)-1-(3-pyridyl)pyrazole-4-carboxamide] | 10 to 100 | 10 to 100 | 1000 to 10000 | 1000 to 10000
COc1ccc(F)cc1C(=O)NCc1ccc(-c2nn(C3CCCOC3)c(N)c2C(N)=O)cc1F (stereo not drawn) [Example 127, 5-amino-3-[3-fluoro-4-[[(5-fluoro-2-methoxy-benzoyl)amino]methyl]phenyl]-1-tetrahydropyran-3-yl-pyrazole-4-carboxamide] | < 10 | < 10 | 1000 to 10000 | 10 to 100
